Laboratory results from patent US4021472A, “Guanidinobenzoic acid derivatives” (Ono Pharmaceutical Co., Ltd., priority 1974, dated 1977).
≈ marks a conversion by molar mass, not a printed value. Where two headings read alike, the source gives them in different places.

Experiments:
[1] = Solubility in water; type: physicochemical
[2] = system: rat pancreatitis; assay: Effect on rat pancreatitis induced by sodium taurocholate and trypsin (mortality); type: in vivo, rat (male Wistar); conditions: intravenous injection
Experimental: Male Wistar rats weighing 200 to 250 g were laparotomized under anesthetization with pentobarbital and to the thus laparotomized rats 0.1 ml of a mixture of sodium taurocholate and trypsin was administered through the pancreatic duct to induce pancreatitis.
Mortality rates for up to 48 hrs. after the administration were compared between the groups in which the compounds of the present invention were injected intravenously and the control groups in which a physiological salt solution was injected intravenously.

[3] = system: plasmin; assay: Inhibitory effects for fibrinolysis of plasmin (fibrinolytic activity in rabbits after human serum and streptokinase); type: in vivo, rabbit; conditions: 5 mg/kg iv
Experimental: Inhibitory effects for fibrinolysis of plasmin were examined according to the method of S. Okamoto and U. Okamoto (Keio Journal of Medicine 11 (No. 3) 105 (1962)).
10 ml of human serum was administered to male rabbits weighing 2.0 to 2.5 Kg through the femoral vein, and after 2 minutes 50,000 units of streptokinase was administered to the rabbits intraveneously to activate plasmin.
Each of the test compounds of the present invention was administered to the rabbits at a dosage level of 5 mg/Kg 5 minutes after the administration of streptokinase. After 15, 30, 60, 90, 120 and 180 minutes, 0.5 ml of blood was drawn from the rabbits, and the blood then incubated at 37° C. for 3 hrs. to coagulate the blood. The thus formed blood clots were washed with water and dried. The dry weight of the blood clots was evaluated and compared with the normal value (the value obtained prior to administration of the human serum).
The values in Table 2 were calculated according to the following equation: [formula]

[4] = molecular target: T1, trypsin (Bos taurus, UniProt P00760); assay: Anti-trypsin: 50% inhibition of hydrolysis of p-tosylarginine methyl ester by trypsin in vitro; type: biochemical; conditions: 37° C., 30 minutes, Tris-HCl buffer pH 8.5, p-tosylarginine methyl ester substrate; read-out: 50% Inhibition Concentration, Anti-Trypsin
T1 sequence (P00760 24-246): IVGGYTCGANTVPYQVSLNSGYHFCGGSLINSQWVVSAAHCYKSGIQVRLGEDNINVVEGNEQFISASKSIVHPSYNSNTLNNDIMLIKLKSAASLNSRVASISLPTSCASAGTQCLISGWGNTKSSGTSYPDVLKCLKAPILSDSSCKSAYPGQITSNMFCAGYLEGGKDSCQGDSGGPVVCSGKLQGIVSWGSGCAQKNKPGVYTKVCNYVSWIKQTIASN
Experimental: The inhibitory activities of representative compounds of formula (I) against plasmin and trypsin in vitro were determined in a manner similar to the method described by M. Muramatsu et al (J. Biochemistry 57, 402 (1965)) for plasmin, and the method described by M. Muramatsu et al (J. Biochemistry 58, 214 (1964)) for trypsin, as follows:
(2) Trypsin: A system comprising 0.4 ml of trypsin (1.25 μg/ml), 0.5 ml of p-tosylarginine methyl ester (20 mM) in Tris-HCl buffer (pH 8.5) and 0.1 ml of a solution of each of the following compounds of formula (I) at various concentrations was reacted at a temperature of 37° C. for 30 minutes. The concentration of each of the test compounds at which the activity of trypsin 0.5 μg to hydrolyze p-tosylarginine methyl ester was 50% inhibited is shown in Table 1 below. As a control, Trasylol (tradename of a peptide extracted from bovine organs having an inhibitory activity against a proteolytic enzyme and manufactured by Bayer A.G.) was used.

[5] = molecular target: T2, plasmin (Homo sapiens, UniProt P00747); assay: Anti-plasmin: 50% inhibition of plasmin in vitro (euglobulin/streptokinase/fibrinogen system); type: biochemical
T2 construct: from tissue
T2 sequence (P00747 581-810 limits assumed): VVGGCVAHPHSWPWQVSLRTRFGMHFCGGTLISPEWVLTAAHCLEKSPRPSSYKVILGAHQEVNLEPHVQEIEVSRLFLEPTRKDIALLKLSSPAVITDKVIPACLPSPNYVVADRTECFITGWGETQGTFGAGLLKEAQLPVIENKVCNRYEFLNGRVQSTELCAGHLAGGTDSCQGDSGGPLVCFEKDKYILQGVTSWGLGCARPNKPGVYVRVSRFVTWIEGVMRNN
T2 sequence (P00747 97-580 partner limits assumed): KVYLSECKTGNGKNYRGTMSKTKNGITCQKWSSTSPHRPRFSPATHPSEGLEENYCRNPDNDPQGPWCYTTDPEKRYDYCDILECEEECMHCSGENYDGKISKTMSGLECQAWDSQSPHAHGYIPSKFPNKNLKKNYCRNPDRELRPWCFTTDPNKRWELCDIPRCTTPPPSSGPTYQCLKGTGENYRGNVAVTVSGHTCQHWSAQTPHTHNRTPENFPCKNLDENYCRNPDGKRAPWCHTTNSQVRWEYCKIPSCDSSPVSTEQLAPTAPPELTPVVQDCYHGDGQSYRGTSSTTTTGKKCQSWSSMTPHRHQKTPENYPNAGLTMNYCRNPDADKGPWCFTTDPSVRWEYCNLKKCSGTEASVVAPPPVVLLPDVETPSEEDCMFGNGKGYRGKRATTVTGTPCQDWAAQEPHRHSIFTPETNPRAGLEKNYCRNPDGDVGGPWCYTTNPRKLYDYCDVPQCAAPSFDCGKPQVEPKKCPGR
Experimental: (1) Plasmin: A system comprising 0.1 ml of human euglobulin (10 fold dilution), 0.1 ml of streptokinase (2000 unit/ml), 0.4 ml of fibrinogen (4% solution), 0.3 ml of a 0.1 M borate saline buffer solution (pH 7.4) and 0.1 ml of a solution of each of the following compounds of formula (I) at various concentrations was allowed to react at a temperature of 37° C. for 30 minutes.

[6] = 37° C., 30 minutes, borate saline buffer pH 7.4, human euglobulin, streptokinase, fibrinogen, read-out: 50% Inhibition Concentration, Anti-Plasmin

solubility [1] [mM]	IC50 [4] [nM]	IC50 [5, 6] [nM]	SMILES	Mortality for 48 hrs. ([2]; 1 mg/kg) [%]	Mortality for 48 hrs. ([2]; 2.5 mg/kg) [%]	Mortality for 48 hrs. ([2]; 5.0 mg/kg) [%]	Fibrinolytic Activity in Rabbits ([3]; 15 min. after) [%]	Fibrinolytic Activity in Rabbits ([3]; 30 min. after) [%]	Fibrinolytic Activity in Rabbits ([3]; 60 min. after) [%]	Fibrinolytic Activity in Rabbits ([3]; 90 min. after) [%]	Fibrinolytic Activity in Rabbits ([3]; 120 min. after) [%]	Fibrinolytic Activity in Rabbits ([3]; 180 min. after) [%]	IC50 [5] [nM]
10 (≈ 4120 µg/mL)	0.56	120	CN(C)C(=O)COC(=O)CCc1ccc(OC(=O)c2ccc(NC(=N)N)cc2)cc1 [compound 7]	–	–	–	–	–	–	–	–	–	–
10 (≈ 3840 µg/mL)	12	10	CNC(=O)COC(=O)Cc1ccc(OC(=O)c2ccc(NC(=N)N)cc2)cc1 [compound 8]	–	–	–	–	–	–	–	–	–	–
10 (≈ 4100 µg/mL)	0.09	19.5	CN(C)C(=O)COC(=O)C=Cc1ccc(OC(=O)c2ccc(NC(=N)N)cc2)cc1 [compound 6]	–	–	–	–	–	–	–	–	–	–
10 (≈ 4410 µg/mL)	1.4	0.53	CCCN(CCC)C(=O)COC(=O)c1ccc(OC(=O)c2ccc(NC(=N)N)cc2)cc1 [compound 4]	–	–	–	–	–	–	–	–	–	–

The next lines start with the molecule.

SMILES	solubility [1] [mM]	IC50 [4] [nM]	IC50 [5, 6] [nM]	Mortality for 48 hrs. ([2]; 1 mg/kg) [%]	Mortality for 48 hrs. ([2]; 2.5 mg/kg) [%]	Mortality for 48 hrs. ([2]; 5.0 mg/kg) [%]	Fibrinolytic Activity in Rabbits ([3]; 15 min. after) [%]	Fibrinolytic Activity in Rabbits ([3]; 30 min. after) [%]	Fibrinolytic Activity in Rabbits ([3]; 60 min. after) [%]	Fibrinolytic Activity in Rabbits ([3]; 90 min. after) [%]	Fibrinolytic Activity in Rabbits ([3]; 120 min. after) [%]	Fibrinolytic Activity in Rabbits ([3]; 180 min. after) [%]	IC50 [5] [nM]
CN(C)C(=O)COC(=O)Cc1ccc(OC(=O)c2ccc(NC(=N)N)cc2)cc1 [Compound No.5]	100 (≈ 39800 µg/mL)	8.5	–	64.2	50.0	44.4	0	0	4	20	46	52	38
CNC(=O)COC(=O)c1ccc(OC(=O)c2ccc(NC(=N)N)cc2)cc1 [Compound No.2]	50 (≈ 18500 µg/mL)	3.5	1.6	85.7	42.8	30	0	0	2	2	12	31	–
CN(C)C(=O)COC(=O)c1ccc(OC(=O)c2ccc(NC(=N)N)cc2)cc1 [compound 3]	> 20	2.7	2	–	–	–	–	–	–	–	–	–	–
N=C(N)Nc1ccc(C(=O)Oc2ccc(C(=O)OCC(N)=O)cc2)cc1 [compound 1]	1 (≈ 356 µg/mL)	3	15	–	–	–	–	–	–	–	–	–	–
